Assay results from patent publication US20170022171A1, “2,5-DISUBSTITUTED CYCLOPENTANECARBOXYLIC ACIDS AND THEIR USE” (Bayer Pharma Aktiengesellschaft, priority 2014, published 2017).

Experiments:
Assay type in all cases: biochemical
[1] = target: T1, mouse MMP-7 (Mus musculus, UniProt Q10738); assay: In vitro mouse MMP-7 inhibition test
T1 construct: purchased R&D Systems 2967-MP
T1 sequence (Q10738 95-264): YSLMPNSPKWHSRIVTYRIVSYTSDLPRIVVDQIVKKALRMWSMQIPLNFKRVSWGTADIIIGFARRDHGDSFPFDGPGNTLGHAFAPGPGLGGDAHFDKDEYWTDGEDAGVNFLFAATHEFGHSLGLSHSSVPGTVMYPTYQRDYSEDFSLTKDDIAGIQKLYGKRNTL
Source text: (§1) The MMP-mediated amidolytic cleavage of a suitable peptide substrate leads to an increase in fluorescent light here too. The signal intensity of the fluorescent light is directly proportional to the enzyme activity. The active concentration of a test compound at which half the enzyme is inhibited (50% signal intensity of the fluorescent light) is reported as the IC50 value.
(§2) Recombinant mouse MMP-7 (from R&D Systems, 2967-MP) is chemically activated in accordance with the manufacturer's instructions using APMA. 1 μl of the test compound to be analysed (as a solution in DMSO, suitable concentrations, for example, 1 nM to 30 μM) is pipetted into 24 μl of activated enzyme (final concentration, for example, 0.5 nM) in reaction buffer (50 mM Tris/HCl pH 7.5, 10 mM CaCl2, 150 mM NaCl, 0.05% Brij®-35) in a white 384-hole microtiter plate (MTP). The enzymatic reaction is started by adding the intramolecularly quenched Mca-Lys-Pro-Leu-Gly-Leu-Dpa(Dnp)-Ala-Arg-NH2 substrate (final concentration, for example, 5 μM; R&D Systems, ES-010), so as to result in a total test volume of 50 μl. The course of the MMP-7 reaction is measured by measuring the fluorescence intensity (excitation 320 nm, emission 410 nm) over a suitable period of time (for example over 120 min at a temperature of 32° C.).

[2] = target: T2, mouse MMP-12 (Mus musculus, UniProt P34960); assay: In vitro mouse MMP-12 inhibition test (standard or high-sensitivity)
T2 construct: purchased R&D Systems 3467-MP
T2 sequence (P34960 110-473): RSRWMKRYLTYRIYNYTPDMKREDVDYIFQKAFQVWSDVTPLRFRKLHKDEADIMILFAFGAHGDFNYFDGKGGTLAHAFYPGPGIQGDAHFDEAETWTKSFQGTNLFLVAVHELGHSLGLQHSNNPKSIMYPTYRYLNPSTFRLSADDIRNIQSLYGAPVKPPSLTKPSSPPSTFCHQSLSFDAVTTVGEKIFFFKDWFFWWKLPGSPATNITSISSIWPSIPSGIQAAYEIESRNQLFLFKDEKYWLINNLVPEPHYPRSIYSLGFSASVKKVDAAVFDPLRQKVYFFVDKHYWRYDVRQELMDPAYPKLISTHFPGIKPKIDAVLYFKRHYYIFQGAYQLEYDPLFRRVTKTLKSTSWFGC
Source text: as §1
as §2, with “MMP-12” for “MMP-7”, “3467-MP)” for “2967-MP)”, “autocatalytically” for “chemically”, “instructions.” for “instructions using APMA.”, “1” for “0.5”, “50” for “50 μl.”
In this case, an enzyme concentration ten times lower is used (final concentration, for example, 0.1 nM) in order to achieve an elevated test sensitivity. The incubation period chosen for the test is correspondingly longer (for example 16 hours).

[3] = target: T3, mouse MMP-8 (Mus musculus, UniProt O70138); assay: In vitro mouse MMP-8 inhibition test
T3 construct: purchased R&D Systems 2904-MP
T3 sequence (O70138 101-465): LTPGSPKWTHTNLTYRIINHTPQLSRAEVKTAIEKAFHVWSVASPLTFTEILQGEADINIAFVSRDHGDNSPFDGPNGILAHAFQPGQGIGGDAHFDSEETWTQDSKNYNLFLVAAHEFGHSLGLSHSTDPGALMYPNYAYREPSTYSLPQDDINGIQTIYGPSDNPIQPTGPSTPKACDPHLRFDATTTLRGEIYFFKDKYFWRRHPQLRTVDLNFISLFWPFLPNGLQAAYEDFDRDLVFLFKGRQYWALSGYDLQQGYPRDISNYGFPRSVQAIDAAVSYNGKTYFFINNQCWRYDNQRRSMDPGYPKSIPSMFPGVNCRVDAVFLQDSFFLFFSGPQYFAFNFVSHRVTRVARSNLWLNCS
Source text: as §1
as §2, with “MMP-8” for “MMP-7”, “2904-MP)” for “2967-MP)”, “2” for “0.5”

[4] = target: T4, mouse MMP-9 (Mus musculus, UniProt P41245); assay: In vitro mouse MMP-9 inhibition test
T4 construct: purchased R&D Systems 909-MP
T4 sequence (P41245 108-730): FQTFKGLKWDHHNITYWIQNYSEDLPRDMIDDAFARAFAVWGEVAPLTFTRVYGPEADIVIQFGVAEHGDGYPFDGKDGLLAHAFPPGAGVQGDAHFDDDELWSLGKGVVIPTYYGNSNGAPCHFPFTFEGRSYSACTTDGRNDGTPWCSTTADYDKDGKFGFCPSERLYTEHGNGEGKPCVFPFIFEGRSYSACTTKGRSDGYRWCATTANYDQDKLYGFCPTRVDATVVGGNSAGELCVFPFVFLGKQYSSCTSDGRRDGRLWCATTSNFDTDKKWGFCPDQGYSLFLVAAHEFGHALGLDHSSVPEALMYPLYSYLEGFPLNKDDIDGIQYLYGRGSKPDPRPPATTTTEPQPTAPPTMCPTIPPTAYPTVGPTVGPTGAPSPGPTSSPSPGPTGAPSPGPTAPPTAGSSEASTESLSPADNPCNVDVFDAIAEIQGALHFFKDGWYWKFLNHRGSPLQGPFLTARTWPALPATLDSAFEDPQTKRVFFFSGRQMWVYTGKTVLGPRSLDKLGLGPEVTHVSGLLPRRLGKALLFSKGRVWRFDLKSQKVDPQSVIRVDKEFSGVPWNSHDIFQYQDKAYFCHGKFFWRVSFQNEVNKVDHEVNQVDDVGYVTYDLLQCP
Source text: as §1
as §2, with “MMP-9” for “MMP-7”, “909-MP)” for “2967-MP)”, “0.1” for “0.5”, “Mca-Pro-Leu-Gly-Leu-Dpa(Dnp)-Ala-Arg-NH2” for “Mca-Lys-Pro-Leu-Gly-Leu-Dpa(Dnp)-Ala-Arg-NH2”, “ES-001),” for “ES-010),”, “50” for “50 μl.”

Row | IC50 [1] [nM] | IC50 [2] [nM] | IC50 [3] [nM] | IC50 [4] [nM] | Compound
1 | 46 | 0.61 | 18 | 31 | O=C(O)[C@H]1[C@H](Cn2nnc3ccccc3c2=O)CC[C@@H]1C(=O)c1ccc(OCc2ccc(F)cc2)cc1 (racemic) [Example 1, (+/−)-(1RS,2RS,5SR)-2-{4-[(4-Fluorobenzyl)oxy]benzoyl}-5-[(4-oxo-1,2,3-benzotriazin-3(4H)-yl)methyl]cyclopentanecarboxylic acid]
2 | 140 | 4.1 | 1400 | 1100 | O=C(O)[C@H]1[C@H](Cn2nnc3ccccc3c2=O)CC[C@@H]1C(=O)c1ccc(OCc2cccc(Cl)c2)cc1 (racemic) [Example 2, (+/−)-(1RS,2RS,5SR)-2-{4-[(3-Chlorobenzyl)oxy]benzoyl}-5-[(4-oxo-1,2,3-benzotriazin-3(4H)-yl)methyl]cyclopentanecarboxylic acid]
3 | 430 | 7 | 810 | 2600 | O=C(O)[C@H]1[C@H](Cn2nnc3ccccc3c2=O)CC[C@@H]1C(=O)c1ccc(OCc2ccc(Cl)c(Cl)c2)cc1 (racemic) [Example 3, (+/−)-(1RS,2RS,5SR)-2-{4-[(3,4-Dichlorobenzyl)oxy]benzoyl}-5-[(4-oxo-1,2,3-benzotriazin-3(4H)-yl)methyl]cyclopentanecarboxylic acid]
4 | 160 | 1.4 | 42 | 61 | O=C(O)[C@H]1[C@H](Cn2nnc3ccccc3c2=O)CC[C@@H]1C(=O)c1ccc(OCC2CCCC2)cc1 (racemic) [Example 4, (+/−)-(1RS,2RS,5SR)-2-[4-(Cyclopentylmethoxy)benzoyl]-5-[(4-oxo-1,2,3-benzotriazin-3(4H)-yl)methyl]cyclopentanecarboxylic acid]
5 | 160 | 1.8 | 360 | 930 | O=C(O)[C@H]1[C@H](Cn2nnc3ccccc3c2=O)CC[C@@H]1C(=O)c1ccc(OCCC2CCCCC2)cc1 (racemic) [Example 5, (+/−)-(1RS,2RS,5SR)-2-[4-(2-Cyclohexylethoxy)benzoyl]-5-[(4-oxo-1,2,3-benzotriazin-3(4H)-yl)methyl]cyclopentanecarboxylic acid]
6 | 23 | 1.8 | 18 | 61 | O=C(O)[C@H]1[C@H](Cn2nnc3ccc(C(F)(F)F)cc3c2=O)CC[C@@H]1C(=O)c1ccc(OCc2ccccc2)cc1 (racemic) [Example 11, (+/−)-(1RS,2RS,5SR)-2-[4-(Benzyloxy)benzoyl]-5-{[4-oxo-6-(trifluoromethyl)-1,2,3-benzotriazin-3(4H)-yl]methyl}cyclopentanecarboxylic acid]
7 | 230 | 11 | 640 | > 40000 | O=C(O)[C@H]1[C@H](Cn2nnc3ccc(C(F)(F)F)cc3c2=O)CC[C@@H]1C(=O)c1ccc(OCCCc2ccccc2)cc1 (racemic) [Example 39, (+/−)-(1RS,2SR,5RS)-2-{[4-Oxo-6-(trifluoromethyl)-1,2,3-benzotriazin-3(4H)-yl]methyl}-5-[4-(3-phenylpropoxy)benzoyl]cyclopentanecarboxylic acid]
8 | 220 | 1.9 | 25 | 640 | O=C(O)[C@H]1[C@H](Cn2nnc3ccc(C(F)(F)F)cc3c2=O)CC[C@@H]1C(=O)c1ccc(OCC2CCCCC2)cc1 (racemic) [Example 40, (+/−)-(1RS,2RS,5SR)-2-[4-(Cyclohexylmethoxy)benzoyl]-5-{[4-oxo-6-(trifluoromethyl)-1,2,3-benzotriazin-3(4H)-yl]methyl}cyclopentanecarboxylic acid]
9 | 990 | 21 | 1100 | > 40000 | O=C(O)[C@H]1[C@H](Cn2nnc3ccc(C(F)(F)F)cc3c2=O)CC[C@@H]1C(=O)c1ccc(OCCCC2CCCCC2)cc1 (racemic) [Example 56, (+/−)-(1RS,2RS,5SR)-2-{4-(3-Cyclohexylpropoxy)benzoyl}-5-{[4-oxo-6-(trifluoromethyl)-1,2,3-benzotriazin-3(4H)-yl]methyl}cyclopentanecarboxylic acid]
10 | 1100 | 35 | 760 | 2100 | O=C(O)[C@H]1[C@H](Cn2nnc3ccc(C(F)(F)F)cc3c2=O)CC[C@@H]1C(=O)c1ccc(SCc2ccc(Cl)c(Cl)c2)cc1 (racemic) [Example 79, (+/−)-(1RS,2RS,5SR)-2-{4-[(3,4-Dichlorobenzyl)sulphanyl]benzoyl}-5-{[4-oxo-6-(trifluoromethyl)-1,2,3-benzotriazin-3(4H)-yl]methyl}cyclopentanecarboxylic acid]
11 | 22 | 0.86 | 26 | 72 | Cc1ccc2nnn(C[C@@H]3CC[C@H](C(=O)c4ccc(OCc5ccccc5)cc4)[C@H]3C(=O)O)c(=O)c2c1 (racemic) [Example 91, (+/−)-(1RS,2RS,5SR)-2-[4-(Benzyloxy)benzoyl]-5-[(6-methyl-4-oxo-1,2,3-benzotriazin-3(4H)-yl)methyl]cyclopentanecarboxylic acid]
12 | 160 | 6.1 | 1300 | 1600 | Cc1cccc(COc2ccc(C(=O)[C@H]3CC[C@@H](Cn4nnc5ccc(C)cc5c4=O)[C@@H]3C(=O)O)cc2)c1 (racemic) [Example 97, (+/−)-(1RS,2RS,5SR)-2-{4-[(3-Methylbenzyl)oxy]benzoyl}-5-[(6-methyl-4-oxo-1,2,3-benzotriazin-3(4H)-yl)methyl]cyclopentanecarboxylic acid]
13 | 150 | 1.7 | 250 | 1100 | Cc1ccc2nnn(C[C@@H]3CC[C@H](C(=O)c4ccc(OCc5cccc(C(F)(F)F)c5)cc4)[C@H]3C(=O)O)c(=O)c2c1 (racemic) [Example 100, (+/−)-(1RS,2SR,5RS)-2-[(6-Methyl-4-oxo-1,2,3-benzotriazin-3(4H)-yl)methyl]-5-(4-{[3-(trifluoromethyl)benzyl]oxy}benzoyl)cyclopentanecarboxylic acid]
